Assay [1] has as its target T1, branched-chain aminotransferase (MtIlvE) (Mycobacterium tuberculosis, UniProt P9WQ75). In words: […]. Type of assay: biochemical. The settings on record: read-out: Ki.
The target in assay [2] is T1, branched-chain aminotransferase (MtIlvE). In words: biochemical. Type of assay: binding.

T1 sequence (P9WQ75 whole entry): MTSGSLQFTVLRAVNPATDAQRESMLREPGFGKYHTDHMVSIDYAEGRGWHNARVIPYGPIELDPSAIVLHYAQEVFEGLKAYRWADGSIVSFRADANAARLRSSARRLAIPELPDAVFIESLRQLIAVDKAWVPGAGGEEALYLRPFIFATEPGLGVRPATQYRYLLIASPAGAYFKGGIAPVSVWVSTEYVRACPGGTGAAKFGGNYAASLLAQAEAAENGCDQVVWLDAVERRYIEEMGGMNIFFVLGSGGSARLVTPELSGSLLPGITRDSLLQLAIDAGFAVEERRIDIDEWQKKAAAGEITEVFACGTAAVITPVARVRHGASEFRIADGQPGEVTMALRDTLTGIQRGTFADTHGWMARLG

As to `N[C@H]1CONC1=O` [LCS, L-cycloserine], the KI (inactivation) in assay [1] was found to be 88 µM.

As for `N[C@@H]1CON=C1O` [DCS, D-Cycloserine], the kinact/KI – broadly, the second-order rate constant of inactivation – in assay [2] was 0.12 M⁻¹ s⁻¹.

Source of the values: paper PMC5834943 (ACS chemical biology, 2017).
